Data published in PMC9603521, “WYBQ-4: a New Bactericidal Agent against Methicillin-Resistant Staphylococcus aureus” (Microbiology Spectrum, 2022).
Read-outs that look alike come from different tables or passages of the source.

Legend:
[1] = tested on: PBP2a; settings: cited from earlier work; for Kd: read-out: ks
[2] = tested on: MRSA USA300; test: TEM analysis of cell morphology / division defects; type: cell-based, Staphylococcus aureus; settings: 4 μg/mL (1/2× MIC), 3 h
Protocol: MRSA USA300 was cultured overnight, diluted (1:100) into 20 mL of Trypticase soy broth (TSB) medium, and incubated at 30°C with shaking until the optical density at 600 nm (OD600) reached 0.3. […] Bacterial cells treated with 4 μg/mL ceftaroline fosamil (1/2 of their respective MIC) served as a control group. Untreated S. aureus served as a negative control. Bacteria were collected and washed in PBS and resuspended in 4% (vol/vol) glutaraldehyde fixation overnight. The fixed samples were further processed, and morphological changes in S. aureus were observed by TEM (JSM-7900F; JEOL, Japan).

[3] = target: PBP2a (Staphylococcus aureus, UniProt P07944); test: PBP2a acylation kinetics, nitrocefin competition assay; type: biochemical, MRSA
Protocol: Please refer to the supplemental material for the kinetic parameters of the interaction between WYBQ-4 and PBP2a and the determination of the rate of diacylation.
Supplementary Method. 1 Determination of the Kinetic Parameters for Interactions of […]
Determination of the kinetic parameters for interactions of WYBQ-4 with PBP2a The kinetic parameters of the interaction of WYBQ-4 with PBP2a were determined as previously described (1). The kinetics of the reaction between PBP2a of MRSA with WYBQ-4 was studied in homogeneous aqueous solution at 37℃ in 25 mM Hepes buffer, pH 7.0, containing 1 M NaCl and the inhibition of PBPs by β-lactams follows this kinetic scheme. […]
In this minimal scheme, E represents PBP2a, EI is the noncovalent preacylation complex, E-I is the covalent acyl-enzyme species, and P denotes the product of E-I hydrolysis and restoration of […]
The typical reactions of β-lactam could be monitored through competition with a chromophoric β-lactam, nitrocefin, or directly in certain cases by fluorescence intensity of protein. In this study, it is proposed to determine the secondary rate constants (k2/Ks) of WYBQ-4 by nitrocefin competition assay. The reaction was conducted in the above buffer, and the reaction system contained PBP2a (2.5 μM) and different concentrations of nitrocefin (20-120 μM). The reaction was carried out in a UV spectrophotometer (PERSEE T600, China) and the change in absorbance at 500 nm was […]
Apparent first-order rate constants for acylation by nitrocefin were determined by fitting the change in absorbance with time to eqn. (1):
A = A0 + ∆εn E0[(1 − exp (−kn∗ t)] + k0N0∆εn Ε0t (1) where A0 is the initial absorbance at 500 nm, ∆εn the change in molar absorption coefficient on nitrocefin hydrolysis (15900 M-1cm-1), E0 the initial enzyme concentration, N0 the initial nitrocefin concentration, kn* the (burst) pseudo-first-order rate constant for acylation of PBP2a by nitrocefin, and k0 the (line) second-order rate constant of a non-specific hydrolysis of nitrocefin in the presence of PBP2a. The second-order rate constants (kn) for acylation were calculated by fitting a plot of the apparent first-order rate constants (kn*) against the concentration of nitrocefin using a linear least-squares method.
Subsequently, nitrocefin (100 μM) was used as a reporter molecule to determine the apparent first-order rate constants for acylation of WYBQ-4 at different concentrations (0-500 μM) in competition assays. In this case, the change in absorbance at 500 nm with time was fitted to eqn.
Α = A + ∆ε E (k∗ ∕ (k∗ + k∗)(1 − exp (−(k∗ + k∗)t)) + k N ∆ε Ε t (2) […]

[4] = tested on: MRSA USA300; test: Mouse systemic infection model; type: in vivo, mice; settings: USA300 5 × 10^7 CFU, 150 mg/kg, tail intravenous injection at 0 and 3 h, 7-day
Protocol: The S. aureus-induced systemic infection model of mice (6-week-old female C57BL/6J mice) was established as previously described ([46]). […] The mice infected in the same way were treated with physiological saline as an infection control group. The mock group was not infected with S. aureus, and the 7-day mortality of the mice in each group was calculated.

[5] = tested on: MRSA USA300; test: Mouse lung infection model, survival; type: in vivo, mice; settings: mouse pneumonia, USA300 2 × 10^8 CFU, 12-h intervals, within 72 h
Protocol: The animal experiments were performed using 6-week-old male C57BL/6J mice, and the mouse model of lung infection caused by MRSA USA300 was established as previously described ([43], [44]). For the survival rate, mice (10 per group) were infected with MRSA USA300 (2 × 10^8 CFU per mouse). After 2 h of infection, mice were given WYBQ-4 via subcutaneous injection and reinjected at 12-h intervals, whereas mice were treated with ceftaroline fosamil at the same doses and served as positive controls. Mice injected with only MRSA USA300 were used as a negative control. Survival of mice was recorded within 72 h, and survival rates were calculated.

[6] = tested on: MRSA USA300; test: Mouse lung infection model, bacterial load and histopathology; type: in vivo, mice; settings: mouse pneumonia, USA300; after treatment
Protocol: The mice were challenged with 1 × 10^8 CFU of MRSA USA300 to assess bacterial load and pathological changes. The dose and manner of administration in mice were consistent with the survival experiments. In addition, the mice treated with ceftaroline fosamil at 75 and 37.5 mg/kg were used as control groups. At 48 h postinfection, mice were euthanized, and the left lungs were aseptically removed, weighed, and homogenized. Then, the lung tissues were homogenized and serially diluted for CFU counts. The right lungs were fixed with 10% formalin, embedded in paraffin, thin-sectioned, subjected to conventional hematoxylin and eosin (H&E) staining, and then observed using an optical microscope.

[7] = tested on: MSSA ATCC 29213; test: Postantibiotic effect (viable plate count); type: cell-based, Staphylococcus aureus; settings: 1 h exposure
Protocol: The postantibiotic effect (PAE) of WYBQ-4 against MSSA 29213 was determined in MHB agar using the viable plate count method ([39]). […] After incubation at 37°C for 1 h, WYBQ-4 was removed by centrifugation and washing with phosphate-buffered saline (PBS). Subsequently, fresh MHB medium was added to resuspend the bacteria, and the mixture was incubated at 37°C with shaking. The number of colonies was counted by taking 10 μL of bacteria at 1-h intervals and applying them to BHI agar plates after appropriate dilution. PAE duration was calculated as follows: time (h) for bacteria to return to log-phase growth after drug treatment – time (h) for the control group to return to log-phase growth ([40]).

[8] = tested on: PBP2a; settings: as reported; cited from earlier work

Chain of PBP2a (Staphylococcus aureus, UniProt P07944) (P07944 whole entry): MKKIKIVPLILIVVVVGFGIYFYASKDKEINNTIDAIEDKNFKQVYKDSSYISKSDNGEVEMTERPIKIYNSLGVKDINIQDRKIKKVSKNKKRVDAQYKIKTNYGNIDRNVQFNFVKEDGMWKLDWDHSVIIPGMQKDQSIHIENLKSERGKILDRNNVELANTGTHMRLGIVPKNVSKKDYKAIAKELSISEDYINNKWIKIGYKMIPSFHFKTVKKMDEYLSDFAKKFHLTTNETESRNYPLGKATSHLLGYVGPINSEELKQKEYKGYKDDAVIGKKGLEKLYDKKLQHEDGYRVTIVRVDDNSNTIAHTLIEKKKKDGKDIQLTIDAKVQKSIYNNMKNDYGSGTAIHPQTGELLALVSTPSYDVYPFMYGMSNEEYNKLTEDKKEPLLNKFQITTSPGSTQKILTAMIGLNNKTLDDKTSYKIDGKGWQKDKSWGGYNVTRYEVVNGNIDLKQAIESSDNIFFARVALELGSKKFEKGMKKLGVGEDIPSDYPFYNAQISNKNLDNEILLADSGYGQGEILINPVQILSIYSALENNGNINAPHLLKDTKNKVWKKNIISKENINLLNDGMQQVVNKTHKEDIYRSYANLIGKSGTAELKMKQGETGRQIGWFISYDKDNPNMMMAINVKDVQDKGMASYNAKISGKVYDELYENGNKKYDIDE

For `CC1(C)S[C@@H]2[C@H](NC(=O)[C@H](N)c3ccccc3)C(=O)N2[C@H]1C(=O)O` [Ampicillin], the k2 ([1]; PBP2a) is given as 3.4 ± 0.1 s^–1 × 10^3, the k2/ks ([1]; PBP2a) is given as 5.0 ± 1.0 M^–1s^–1 and the k3 ([1]; PBP2a) is given as 3.2 ± 0.1 s^–1 × 10^6. The Kd ([1]; PBP2a) was 668 ± 124 µM.
For `CCO/N=C(\C(=O)N[C@@H]1C(=O)N2C(C(=O)[O-])=C(Sc3nc(-c4cc[n+](C)cc4)cs3)CS[C@H]12)c1nsc(N)n1` [Ceftaroline], the “Percentage of defective cells (thin cell walls)” value [2] is listed as 71.9%, the k2/ks ([1]; PBP2a acylation) is listed as 4,500 ± 640 M^–1s^–1 and the k2/ks ([1]; PBP2a acylation, listed as ceftaroline) is listed as 4,500 M^–1s^–1. The Kd ([1]; PBP2a) was 20 ± 4 µM.
In the case of `CC(C)(O/N=C(\C(=O)N[C@@H]1C(=O)N2C(C(=O)[O-])=C(C[n+]3ccccc3)CS[C@H]12)c1csc(N)n1)C(=O)O` [Ceftazidime], the k2 ([1]; PBP2a) is given as 1.0 ± 0.1 s^–1 × 10^3, the k2/ks ([1]; PBP2a) is given as 1.5 ± 0.3 M^–1s^–1 and the k3 ([1]; PBP2a) is given as 3.2 ± 0.2 s^–1 × 10^6. For the same molecule, the Kd ([1]; PBP2a) was 671 ± 116 µM.
For `O=C(Cc1cccs1)N[C@@H]1C(=O)N2C(C(=O)O)=C(/C=C/c3ccc([N+](=O)[O-])cc3[N+](=O)[O-])CS[C@H]12` [Nitrocefin], the “primary reaction rate constant, kn*” value ([3]; 100 μM nitrocefin, acylation of PBP2a) is listed as “approximately 0.05 s^−1”, the “secondary rate constant, k0, for the nonspecific hydrolysis of nitrocefin” value ([3]; in the presence of PBP2a) is listed as 2.3 ± 0.14 M⁻¹ s⁻¹ and the k2 ([1]; PBP2a) is listed as 3.7 ± 0.3 s^–1 × 10^3. The k2/ks ([1]; PBP2a) was 19.0 ± 3.0 M^–1s^–1, the k3 ([1]; PBP2a) was 7.2 ± 0.1 s^–1 × 10^6 and the Kd ([1]; PBP2a) was 192 ± 24 µM.
In the case of `CO/N=C(\C(=O)N[C@@H]1C(=O)N2C(C(=O)[O-])=C(C[N+]3(C)CCCC3)CS[C@H]12)c1csc(N)n1` [cefepime], the survival rate [4] is given as 40%, the k2 ([1]; PBP2a) is given as 1.5 ± 0.1 s^–1 × 10^3 and the k2/ks ([1]; PBP2a) is given as 0.9 ± 0.1 M^–1s^–1. For the same molecule, the k3 ([1]; PBP2a) was 5.9 ± 0.5 s^–1 × 10^6.
For `CCO/N=C(\C(=O)N[C@@H]1C(=O)N2C(C(=O)[O-])=C(Sc3nc(-c4cc[n+](C)cc4)cs3)CS[C@H]12)c1nsc(NP(=O)(O)O)n1` [ceftaroline fosamil, reference compound], the “Asymmetry of bacterial division (number of cells)” value [2] was 41, the “Distortion of septa (number of cells)” value [2] was 31 and the “Percentage of defective cells (asymmetry of bacterial division)” value [2] was 46.1 C %. For the same molecule, the “Percentage of defective cells (distortion of septa)” value [2] was 34.8 B %, the “Percentage of defective cells (thin cell walls)” value [2] was 71.9 C % and the “Thin cell walls (number of cells)” value [2] was 64. The survival rate ([5]; 37.5 mg/kg subcutaneous) was 26.67%, the survival rate ([5]; 75 mg/kg subcutaneous) was 76.67% and the “inflammatory signs of lung tissue (H&E histopathology)” value [6] was “significantly reduced”.
Work on `CO[C@@]1(NC(=O)C(C(=O)O)c2ccc(O)cc2)C(=O)N2C(C(=O)O)=C(CSc3nnnn3C)CO[C@@H]21` (some centres unmarked) [moxalactam, reference compound] yielded a PAE ([7]; 2× MIC) of 1 h, a PAE ([7]; 8× MIC) of 2.5 h and a survival rate [4] of 50%.
For `Cc1onc(-c2ccccc2)c1C(=O)N[C@@H]1C(=O)N2[C@@H]1SC(C)(C)[C@@H]2C(=O)O` [oxacillin], the “IC50 for PBP2a” value [8] is given as 408 ± 6 µg/mL.
